Experimental data taken from PubChem BioAssay (NCI).
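Protocol summary: plate cells (96-well), add compound at 5 concentrations, incubate 48 h, interpolate endpoints linearly. The concentration for full growth arrest is given as TGI.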

Key:
Experiment in all cases: inhibition of tumour cell growth, NCI panel, 48 h
MDA-N = system: MDA-N
EKVX NSCLC = system: EKVX NSCLC
SK-MEL-2 melanoma = system: SK-MEL-2 melanoma
KM12 colon = system: KM12 colon
CAKI-1 renal = system: CAKI-1 renal
SF-295 CNS = system: SF-295 CNS
MCF7 breast = system: MCF7 breast
MALME-3M melanoma = system: MALME-3M melanoma
IGROV1 ovarian = system: IGROV1 ovarian
M14 melanoma = system: M14 melanoma
RXF 393 renal = system: RXF 393 renal
NCI/ADR-RES ovarian = system: NCI/ADR-RES ovarian
HCT-15 colon = system: HCT-15 colon
HS 578T breast = system: HS 578T breast
OVCAR-3 ovarian = system: OVCAR-3 ovarian
BT-549 breast = system: BT-549 breast
SNB-19 CNS = system: SNB-19 CNS

Row | SMILES | TGI (MDA-N) [µM] | TGI (EKVX NSCLC) [µM] | TGI (SK-MEL-2 melanoma) [µM] | TGI (KM12 colon) [µM] | TGI (CAKI-1 renal) [µM] | TGI (SF-295 CNS) [µM] | TGI (MCF7 breast) [µM] | TGI (MALME-3M melanoma) [µM] | TGI (IGROV1 ovarian) [µM] | TGI (M14 melanoma) [µM] | TGI (RXF 393 renal) [µM] | TGI (NCI/ADR-RES ovarian) [µM] | TGI (HCT-15 colon) [µM] | TGI (HS 578T breast) [µM] | TGI (OVCAR-3 ovarian) [µM] | TGI (BT-549 breast) [µM] | TGI (SNB-19 CNS) [µM]
1 | CC(=O)OC1COC(n2nc(/C=C/c3ccc(Cl)cc3)c(=O)n(/N=C/c3ccccc3)c2=S)C(OC(C)=O)C1OC(C)=O (stereo unspecified) | > 100 | > 100 | > 100 | > 100 | > 100 | > 100 | > 100 | > 100 | > 100 | > 100 | > 100 | > 100 | > 100 | > 100 | > 100 | > 100 | > 100
2 | C(=C\c1nccs1)/c1cccc(/C=C/c2nccs2)n1 | > 50 | > 50 | > 50 | > 50 | > 50 | > 50 | > 50 | > 50 | > 50 | > 50 | > 50 | > 50 | > 50 | > 50 | > 50 | > 50 | > 50
3 | O=c1[nH]/c(=C/c2ccc(OCc3ccccc3)cn2)c(=O)[nH]/c1=C/c1ccc(Cl)cc1 | 0.723 | > 100 | > 100 | > 100 | > 56.6 | 29.4 | > 100 | > 100 | > 100 | > 100 | > 28.3 | > 100 | > 100 | 2.68 | 2.45 | > 100 | > 100
4 | O=C(Cn1cc(F)c(=O)[nH]c1=O)C12CC3CC(CC(C3)C1)C2 | > 100 | > 100 | > 100 | > 100 | > 100 | > 100 | > 100 | > 100 | > 100 | > 100 | > 100 | > 100 | > 100 | > 100 | > 100 | > 100 | > 100
5 | CC(=O)Oc1ccc2c(C)cc(=O)oc2c1 | > 100 | > 100 | > 100 | > 100 | > 100 | > 100 | > 100 | > 100 | > 100 | > 100 | > 100 | > 100 | > 100 | > 100 | > 100 | > 100 | > 100
6 | O=C(O)CCC(NC(=O)c1ccc(Nc2cnc3ccc(C(F)(F)F)cc3n2)cc1)C(=O)O (stereo unspecified) | > 100 | > 100 | > 100 | > 100 | > 100 | > 100 | > 100 | > 100 | > 100 | > 100 | > 100 | > 100 | > 100 | > 100 | > 100 | > 100 | > 100
7 | COc1ccc(N=Nc2ccc3oc(=O)c(C(=O)Nc4ccccc4)cc3c2)cc1 | > 10 | > 10 | > 10 | > 10 | > 10 | > 10 | > 10 | > 10 | > 10 | > 10 | > 10 | > 10 | > 10 | > 10 | > 10 | > 10 | > 10
8 | COc1ccc(C2C3CCc4ccccc4C3=NN2S(=O)(=O)c2ccc(Cl)cc2)cc1 (stereo unspecified) | 9.19 | > 100 | > 100 | > 100 | > 100 | 50.9 | 34.8 | > 100 | 52.9 | > 100 | 58.4 | 21.9 | 4.52 | > 100 | > 100 | > 100 | > 100
